This note sets out measurements from ChEMBL document CHEMBL1141639, “Synthesis and heme-binding correlation with antimalarial activity of 3,6-bis-(omega-N,N-diethylaminoamyloxy)-4,5-difluoroxanthone” (Bioorg Med Chem, 2008).

Assay [1] relates to Plasmodium falciparum. Briefly: Antimalarial activity against Plasmodium falciparum D6 in MSF assay. The class given is functional, organism-based.
In assay [2] the test system is Plasmodium falciparum. The assay is described as follows: Antimalarial activity against Plasmodium falciparum W2 in MSF assay. The class given is functional, organism-based.
The nature of assay [3]: Binding affinity to heme in aqueous solution.

On to `CCN(CC)CCCCCOc1ccc2c(=O)c3ccc(OCCCCCN(CC)CC)cc3oc2c1`, for which the IC50 in assay [1] was determined as 180 nM; in assay [2] it was 120 nM. Besides, the Ka in assay [3] is 8.2 10^5/M.
For `CCN(CC)CCCCCOc1ccc2c(=O)c3ccc(OCCCCCN(CC)CC)c(F)c3oc2c1F` the same measures were 93 nM, 150 nM and 0.6 10^5/M.
For `C=CC1CN2CC[C@H]1C[C@H]2[C@H](O)c1ccnc2ccc(OC)cc12` (single isomer, unassigned) [QUININE] the same measures were 11 nM, 60 nM and 0.2 10^5/M.
For `O[C@@H](c1cc(C(F)(F)F)nc2c(C(F)(F)F)cccc12)[C@H]1CCCCN1` [MEFLOQUINE] the same measures were 5.9 nM, 0.7 nM and 0.1 10^5/M.
